Source: PubChem BioAssay (NCI)
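Interpolation was linear, between the two tested concentrations surrounding the appropriate level; five concentrations were tested over 48 hours in 96-well plates. TGI: total growth inhibition.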

Experiments:
Test in all cases: NCI anticancer screen, dose series, 48 h
[1] = system: SN12C renal
[2] = system: NCI-H522 lung
[3] = system: SF-295 CNS
[4] = system: OVCAR-8 ovarian
[5] = system: HT29 colon
[6] = system: NCI-H23 lung
[7] = system: SK-MEL-2 melanoma
[8] = system: U251 CNS
[9] = system: SF-539 CNS
[10] = system: A498 renal
[11] = system: COLO 205 colon
[12] = system: NCI/ADR-RES ovarian
[13] = system: CAKI-1 renal
[14] = system: M14 melanoma
[15] = system: OVCAR-3 ovarian
[16] = system: HCC-2998 colon
[17] = system: EKVX NSCLC
[18] = system: SW-620 colon
[19] = system: SF-268 CNS
[20] = system: 786-0 renal
[21] = system: MALME-3M melanoma
[22] = system: A549 NSCLC
[23] = system: CCRF-CEM leukemia
[24] = system: HCT-15 colon
[25] = system: KM12 colon
[26] = system: SNB-19 CNS
[27] = system: MCF7 breast
[28] = system: NCI-H460 lung
[29] = system: OVCAR-5 ovarian
[30] = system: T-47D breast
[31] = system: UACC-62 melanoma
[32] = system: SK-OV-3 ovarian
[33] = system: SNB-75 CNS
[34] = system: UACC-257 melanoma
[35] = system: HS 578T breast
[36] = system: NCI-H226 lung
[37] = system: MOLT-4 leukemia
[38] = system: PC-3 prostate
[39] = system: OVCAR-4 ovarian
[40] = system: HCT-116 colon
[41] = system: HL-60(TB) leukemia
[42] = system: RPMI-8226 leukemia
[43] = system: HOP-92 NSCLC
[44] = system: SK-MEL-5 melanoma
[45] = system: IGROV1 ovarian
[46] = system: RXF 393 renal
[47] = system: MDA-MB-231 breast
[48] = system: UO-31 renal
[49] = system: MDA-N
[50] = system: HOP-62 NSCLC
[51] = system: BT-549 breast
[52] = system: ACHN renal
[53] = system: DU-145 prostate
[54] = system: LOX IMVI melanoma
[55] = system: SK-MEL-28 melanoma
[56] = system: TK-10 renal
[57] = system: MDA-MB-435
[58] = system: K-562 leukemia
[59] = system: SR leukemia

Measured: TGI

Cc1cccc2c(NCCCN(C)C)c3c([N+](=O)[O-])ccc(C)c3nc12
5.87 µM: [55]
0.554 µM: [39]
0.218 µM: [11]
0.458 µM: [36]
0.173 µM: [27]
1.12 µM: [9]
0.375 µM: [21]
0.821 µM: [40]
0.332 µM: [52]
0.858 µM: [51]
0.357 µM: [15]
2.02 µM: [26]
0.709 µM: [56]
0.948 µM: [1]
0.982 µM: [32]
0.36 µM: [17]
0.744 µM: [29]
2.61 µM: [13]
3.17 µM: [42]
1.39 µM: [5] | [41]
< 0.0454 µM: [16]
0.601 µM: [47]
0.607 µM: [54]
0.4 µM: [34]
0.19 µM: [46]
1.15 µM: [37]
0.251 µM: [44]
0.491 µM: [33]
0.651 µM: [53]
0.666 µM: [45]
0.265 µM: [50]
3.23 µM: [25]
0.416 µM: [43]
1.58 µM: [4]
0.498 µM: [49]
0.141 µM: [28]
0.778 µM: [22]
0.741 µM: [8]
0.573 µM: [20]
0.297 µM: [14]
3.37 µM: [12]
0.492 µM: [48] | [57]
0.284 µM: [31]
2.96 µM: [35]
0.16 µM: [6]
0.592 µM: [24]
6 µM: [18]
0.12 µM: [2]
1.48 µM: [19]
3.94 µM: [58]
0.259 µM: [38]
0.0269 µM: [10]
> 100 µM: [23]
0.285 µM: [7]
0.758 µM: [30]
0.451 µM: [3]

CC1OC(O[C@H]2CC[C@]3(C)[C@H]4CC=C5[C@@H]6[C@@H](C)[C@H](C)CC[C@]6(C(=O)OC6OC(CO)C(O)C(O)C6O)CC[C@@]5(C(=O)O)[C@]4(C)CC[C@H]3C2(C)C)C(O)C(O)C1O (stereo partly drawn)
> 100 µM: [1] | [2] | [3] | [4] | [6] | [7] | [8] | [9] | [10] | [11] | [12] | [13] | [59] | [14] | [15] | [16] | [18] | [19] | [20] | [23] | [24] | [25] | [26] | [27] | [28] | [29] | [30] | [31] | [32] | [33] | [34] | [35] | [37] | [38] | [39] | [40] | [41] | [43] | [44] | [46] | [47] | [48] | [49] | [50] | [51] | [52] | [53] | [54] | [56] | [57] | [58]

CC(=O)OC1C[C@@H](C)C2(CC(c3ccoc3)OC2=O)C2CCC(O)C3(CO3)C12CO (stereo partly drawn)
> 100 µM: [1] | [2] | [3] | [4] | [5] | [6] | [7] | [8] | [9] | [10] | [11] | [12] | [13] | [59] | [14] | [15] | [16] | [18] | [19] | [20] | [21] | [22] | [23] | [24] | [25] | [26] | [27] | [28] | [29] | [30] | [31] | [33] | [34] | [35] | [36] | [37] | [38] | [39] | [40] | [41] | [42] | [43] | [44] | [45] | [46] | [47] | [48] | [49] | [50] | [51] | [52] | [53] | [54] | [55] | [56] | [57] | [58]

COC(=O)C(Cc1ccc(OC)cc1O)NC(=O)OC(C)(C)C (stereo not drawn)
95 µM: [34]
> 100 µM: [1] | [2] | [3] | [4] | [5] | [6] | [7] | [8] | [9] | [11] | [12] | [13] | [59] | [14] | [15] | [16] | [17] | [18] | [19] | [20] | [21] | [22] | [23] | [24] | [25] | [26] | [27] | [28] | [29] | [30] | [31] | [32] | [33] | [35] | [36] | [37] | [38] | [39] | [40] | [41] | [44] | [45] | [46] | [47] | [48] | [49] | [50] | [51] | [52] | [53] | [54] | [55] | [56] | [57] | [58]

COc1cc(S(=O)(=O)Nc2nc(-c3ccc(N4C(=O)/C(=C\c5cccs5)N=C4c4ccccc4)cc3)cs2)ccc1Cl
65.5 µM: [31]
83.8 µM: [2]
83.4 µM: [51]
63.9 µM: [35]
64.8 µM: [7]
89.8 µM: [43]
56.6 µM: [47]
> 100 µM: [1] | [3] | [4] | [5] | [6] | [8] | [9] | [10] | [11] | [12] | [13] | [59] | [14] | [15] | [18] | [20] | [22] | [23] | [24] | [25] | [26] | [27] | [28] | [29] | [30] | [32] | [33] | [34] | [36] | [37] | [38] | [39] | [40] | [41] | [44] | [45] | [46] | [48] | [49] | [50] | [52] | [53] | [54] | [55] | [56] | [57] | [58]
55.5 µM: [21]
59 µM: [19]
